In patent US20160151366A1, “Compositions and Methods for Treating Autism Spectrum Disorders” (Vanderbilt University, priority 2014, published 2016):
Entries after “also recorded” stand apart in the source; their conditions may differ.

Experiments:
[1] = tested on: SERT Ala56 mice; experiment: Tube Test for Social Dominance; format: in vivo; conditions: for SERT Ala56 mediated social deficits in the Tube Test: SERT Ala56 mice; for Effect of treatment on its own in the Tube Test: wildtype mice, chronic treatment 1 week
Excerpt: FIG. 9. […] SERT Ala56 mice display social deficits in the Tube Test compared to their SERT Gly56 littermates.
FIG. 10. […] SERT Ala56 mice display social deficits in the Tube Test compared to their SERT Gly56 littermates.
FIG. 11. […] Chi Square analysis with Yate's Correction. n.s.=not significant, *p<0.05, ***p<0.001
FIG. 12. […] Chi Square analysis with Yate's Correction. n.s.=not significant, *p<0.05, ***p<0.001
Chi Square analysis with Yate's Correction. n.s.=not significant, *p<0.05, ***p<0.001
As described herein, SERT Ala56 mice have deficits in social behaviors in the Tube Test for Social Dominance. Studies were also conducted to determine the effect of specific p38 MAPK inhibitors on social deficits in the animal of ASD. Mice were treated with either saline or a specific p38 MAPK inhibitor for one week.
SERT Ala56 mice display social deficits in the Tube Test compared to their SERT Gly56 littermates.

[2] = tested on: SERT Ala56 mice; experiment: DOI-induced head twitch (5-HT2A receptor hypersensitivity); format: in vivo; conditions: for CNS 5-HT2A receptor hypersensitivity (DOI-induced head-twitch response): adult SERT Ala56 mice, chronic administration, dose not stated; for SERT Ala56-mediated increases in DOI-induced head twitches: QD×1 wk
Excerpt: Two-Way ANOVA, followed by post-hoc Bonferroni's multiple comparison tests. *p<0.05, **p<0.01
FIG. 20A-B. […] Two-Way ANOVA, followed by post-hoc Bonferroni's multiple comparison tests. **p<0.01, ***p<0.001

[3] = tested on: SERT Ala56 mice; experiment: 8-OH-DPAT-induced hypothermia (5-HT1A receptor hypersensitivity); format: in vivo
Excerpt: Similarly, both drugs normalize 5-HT1A receptor hypersensitivity seen in adult SERT Ala56 mice as monitored by 8-OHDPAT induced hypothermia responses. […] […].

[4] = tested on: SERT Ala56 mice and WT littermates; experiment: Biogenic monoamine levels within the CNS by HPLC; format: in vivo; conditions: i.p., QD×1 wk
Excerpt: FIG. 17A-C. […] Respective brain sections were flash frozen and monoamine levels determined by HPLC. […] 5-Hydoxytryptamine (5-HT), Dopamine (DA), Norepinephrine (NE)
FIG. 19A-C. […] Respective brain sections were flash frozen and monoamine levels determined by HPLC. […] 5-Hydoxytryptamine (5-HT), Dopamine (DA), Norepinephrine (NE)
Respective brain sections were flash frozen and monoamine levels determined by HPLC.

[5] = tested on: SERT Ala56 mice and WT counterparts; experiment: Midbrain expression of SERT after chronic treatment; format: in vivo; conditions: 10 mg/kg, QD, i.p.×1 wk; SERT Ala56 mice or WT counterparts
[6] = tested on: IL-1β; conditions: in vivo treatment; cited from earlier work
[7] = chronic treatment for 1 week, dose not stated
[8] = chronic 10 mg/kg, i.p., DOI 1.0 mg/kg

## CN(C)c1cc(-c2ccncc2)c(-c2ccc3ccccc3c2)nn1 [MW108]
[1]; 10 mg/kg, i.p., QD×1 wk
  SERT Ala56 mediated social deficits in the Tube Test: dose-dependently attenuate
[1]; [7]
  SERT Ala56 mediated social deficits in the Tube Test: reverses these social deficits; also recorded: reverse social behavior deficits
[1]
  Effect of treatment on its own in the Tube Test: no effect on its own; also recorded: Neither dose of MW108 was found to exert any effects on its own; also recorded: Neither dose of MW108 or MW150 was found to exert any effects on their own
[2]
  CNS 5-HT2A receptor hypersensitivity (DOI-induced head-twitch response): normalize CNS 5-HT2A receptor hypersensitivity
[2]; [8]
  SERT Ala56-mediated increases in DOI-induced head twitches: dose-dependently attenuates
[3]; i.p., QD×1 wk, dose not stated
  SERT Ala56-mediated potentiation of 8-OH-DPAT-induced hypothermia: reduced this effect, albeit insignificantly
[4]; 10 mg/kg
  Biogenic monoamine levels (5-HT, DA, NE) in midbrain, hippocampal or frontal cortex samples: No differences between genotype or treatment group were found
[5]
  Midbrain expression of SERT: No changes in SERT expression
[6]
  LPS-induced increases in IL-1β within the CNS: attenuate lipopolysaccharide (LPS)-induced increases in IL-1β

## CN1CCN(c2cc(-c3ccncc3)c(-c3ccc4ccccc4c3)nn2)CC1 [MW150]
[1]; 5 mg/kg, i.p., QD×1 wk
  SERT Ala56 mediated social deficits in the Tube Test: attenuates SERT Ala56-mediated social deficits; also recorded: reverses these social deficits
[1]; 10 mg/kg, i.p., QD×1 wk
  SERT Ala56 mediated social deficits in the Tube Test: attenuates SERT Ala56-mediated social deficits
[1]; [7]
  SERT Ala56 mediated social deficits in the Tube Test: reverses these social deficits; also recorded: reverse social behavior deficits
[1]
  Effect of treatment on its own in the Tube Test: no effects on its own; also recorded: Neither dose of MW150 was found to exert any effects on its own; also recorded: Neither dose of MW108 or MW150 was found to exert any effects on their own
[2]; acute, single treatment 5 mg/kg, i.p., DOI 1.0 mg/kg
  SERT Ala56-mediated increases in DOI-induced head twitch: not capable of reversing; also recorded: failed to mitigate
[2]
  CNS 5-HT2A receptor hypersensitivity (DOI-induced head-twitch response): normalize CNS 5-HT2A receptor hypersensitivity
[2]; chronic 5 mg/kg, i.p., DOI 1.0 mg/kg
  SERT Ala56-mediated increases in DOI-induced head twitches: mitigates
[2]; [8]
  SERT Ala56-mediated increases in DOI-induced head twitches: mitigates
[3]; 5 mg/kg, i.p. QD×1 wk
  SERT Ala56-mediated potentiation of 8-OH-DPAT-induced hypothermia: attenuates
[3]; 10 mg/kg, i.p. QD×1 wk
  SERT Ala56-mediated potentiation of 8-OH-DPAT-induced hypothermia: attenuates
[4]; 5 mg/kg
  Biogenic monoamine levels (5-HT, DA, NE) in midbrain, hippocampal or frontal cortex samples: No differences between genotype or treatment group were found
